Three compounds from US20040034039A1, “Solid preparations” (priority 2000, published 2004) can be followed below.

The data set in a line: Contact angle of a water drop on a compression-molded product. It is filed as physicochemical. The following applies: purified water drop on 300 mg, 13 mm compression-molded product (1 ton/cm^2), 15 seconds after placing. As for the experimental part: The “water-repellent physiologically active substance” to be used in the present invention is exemplified by a substance difficult to get wet, or having a large contact angle, and the like. A specific example thereof is a physiologically active substance having a contact angle of not less than 40 degrees, preferably not less than 60 degrees, more preferably not less than 80 degrees, as measured by forming a compression-molded product (300 mg) having a diameter of 13 mm with Shimadzu autograph (AG-5000B, manufactured by Shimadzu Corporation) at a load of 1 ton/cm^2, placing one drop of purified water on the surface thereof with a syringe, and determining the contact angles of the water drop at 15 seconds after placing with an automatic contact angle meter (CA-Z, manufactured by Kyowa Interface Science Co., Ltd.), and the like. The contact angle of a representative highly water-repellent substance, magnesium stearate, compound A to be mentioned later: (5-(N-benzyl-N-methylaminomethyl)-1-(2,6-difluorobenzyl)-6-[4-(3-methoxyureido)phenyl]-3-phenylthieno[2,3-d]jpyrimidine-2,4(1H,3H)-dione), and compound B to be mentioned later (3-(N-benzyl-N-methylaminomethyl)-4,7-dihydro-5-isobutyryl-7-(2,6-difluorobenzyl)-2-[4-[(1-hydroxycyclopropyl)carbonylamino]phenyl]-4-oxothieno[2,3-b]pyridine) as measured according to the aforementioned method were about 96 degrees, about 90 degrees and about 88 degrees respectively.

In the case of `CONC(=O)Nc1ccc(-c2sc3c(c2CN(C)Cc2ccccc2)c(=O)n(-c2ccccc2)c(=O)n3Cc2c(F)cccc2F)cc1` [compound A, 5-(N-benzyl-N-methylaminomethyl)-1-(2,6-difluorobenzyl)-6-[4-(3-methoxyureido)phenyl]-3-phenylthieno[2,3-d]pyrimidine-2,4(1H,3H)-dione], the contact angle result was “about 90 degrees”.

For `CC(C)C(=O)c1cn(Cc2c(F)cccc2F)c2sc(-c3ccc(NC(=O)C4(O)CC4)cc3)c(CN(C)Cc3ccccc3)c2c1=O` [compound B, 3-(N-benzyl-N-methylaminomethyl)-4,7-dihydro-5-isobutyryl-7-(2,6-difluorobenzyl)-2-[4-[(1-hydroxycyclopropyl)carbonylamino]phenyl]-4-oxothieno[2,3-b]pyridine], the contact angle entry is “about 88 degrees”.

Consider magnesium stearate [reference compound], for which the contact angle result is on record as “about 96 degrees”.
